Patent US10342760B2, “Lipid nanoparticles for transfection and related methods” (The University of British Columbia, priority 2013, dated 2019)

Test: Apparent pKa of ionizable cationic lipid
Assay type: physicochemical

pKa: 6.3
Structure (SMILES): CCCCCCCCC1CC1CCCCCCCCC(CCCCCCCCC1CC1CCCCCCCC)OC(=O)CCCN(C)C (stereo not shown) [Cationic Lipid A, 1,17-bis(2-octylcyclopropyl)heptadecan-9-yl-4-(dimethylamino)butanoate]
